Like-named read-outs stand apart in the source and are kept apart here.
What was measured:
[1] = target: T1, human type 1 glycine transporter (GlyT1) (Homo sapiens, UniProt P48067); test: Glycine uptake inhibition experiment ([3H] glycine uptake in T98G cells); type: cell-based; conditions: [3H] glycine 250 nM, read-out: IC50 (glycine uptake inhibiting activity)
T1 construct: Used in the experiment were T98G cells (glioma cells) developing a human type 1 glycine transporter (GlyT1); endogenous in cells; host or cells: T98G human glioma cells
T1 sequence (P48067 1-706): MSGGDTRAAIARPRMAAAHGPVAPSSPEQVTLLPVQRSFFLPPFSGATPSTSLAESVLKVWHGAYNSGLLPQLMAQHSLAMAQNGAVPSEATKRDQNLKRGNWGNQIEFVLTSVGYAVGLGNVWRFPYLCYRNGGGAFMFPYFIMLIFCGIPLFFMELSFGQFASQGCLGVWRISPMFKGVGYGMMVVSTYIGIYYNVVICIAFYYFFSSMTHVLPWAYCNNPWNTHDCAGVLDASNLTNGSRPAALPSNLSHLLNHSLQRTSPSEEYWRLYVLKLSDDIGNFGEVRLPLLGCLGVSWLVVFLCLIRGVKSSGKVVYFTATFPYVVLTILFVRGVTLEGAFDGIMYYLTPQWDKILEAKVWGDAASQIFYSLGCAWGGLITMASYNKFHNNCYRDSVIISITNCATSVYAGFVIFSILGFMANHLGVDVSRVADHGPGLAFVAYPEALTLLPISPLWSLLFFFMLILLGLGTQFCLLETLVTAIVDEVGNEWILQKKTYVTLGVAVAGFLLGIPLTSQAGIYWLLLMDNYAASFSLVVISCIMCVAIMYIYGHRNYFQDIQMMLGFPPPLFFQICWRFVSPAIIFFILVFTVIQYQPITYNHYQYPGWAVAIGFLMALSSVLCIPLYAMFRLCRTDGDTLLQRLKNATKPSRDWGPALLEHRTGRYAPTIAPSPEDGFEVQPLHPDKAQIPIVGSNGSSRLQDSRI
Description: A glycine uptake inhibition experiment was conducted in accordance with the method described in Neuron, 8, 927-935, 1992. Used in the experiment were T98G cells (glioma cells) developing a human type 1 glycine transporter (GlyT1). The T98G cells were seeded in a 96-well plate at a density of 2.0×10^4 cells per well and cultured overnight in a CO2 incubator. The test substance was first dissolved in a 100% DMSO solution and then dissolved in a 10 mM HEPES buffer solution (pH 7.4) supplemented with 150 mM sodium chloride, 1 mM calcium chloride, 5 mM potassium chloride, 1 mM magnesium chloride, 10 mM glucose, and 0.2% bovine serum albumin. After removing the cell culture medium, the test substance was subjected to a 10-min pretreatment. Thereafter, the test substance and [^3H] glycine (final concentration: 250 nM) were added to the cells and reaction was performed at room temperature for 15 minutes. After the end of the reaction, the extracellular fluid was aspirated with a manifold to remove the excess marker glycine present outside of the cells; thereafter, the cells were lysed with an aqueous solution of 0.5 M sodium hydroxide. The glycine content in the cells was determined by measuring the radioactivity in the cell lysate with a liquid scintillation counter. With the amount of glycine uptake in the presence of 10 μM ALX5407 being referred to as the nonspecific uptake, the amount of specific uptake was calculated by subtracting the amount of nonspecific uptake from the total amount of uptake in the absence of 10 μM ALX5407. In addition, glycine uptake inhibiting activity (IC50) was calculated from an inhibition curve for the concentration of the test substance ranging from 10^−9 to 10^−5 M.

[2] = Membrane permeability experiment (PAMPA Evolution); type: in vitro ADME; conditions: artificial lipid GIT-0, pH 4.0, 5.0, 6.2 and 7.4, marker metoprolol
Description: In the development of pharmaceuticals, membrane permeability is an important factor to consider from the viewpoint of relationship with the bodily absorption of a medicament to be administered orally. Compounds having high membrane permeability are expected to feature satisfactory absorption by the intestinal tract (see Pharmaceutical Research (2002) Vol. 19, No. 7, 921-925.)
A membrane permeability test was conducted using PAMPA Evolution™ (pION INC.) in accordance with a modified version of the recommended protocol of pION INC. To be more specific, solutions of an assay compound (i.e., a DMSO solution of the compound as diluted by being added to system solutions that had been adjusted to prescribed pHs (4.0, 5.0, 6.2, and 7.4)) were prepared and added to the lower compartment (donor) of a sandwich plate having a lipid bilayer membrane formed of an artificial lipid (GIT-0). An acceptor sink buffer was added to the upper compartment (acceptor) and after the lapse of a prescribed period, the cumulative permeation of the compound was measured by performing UV spectroscopy on the solutions in the donor and acceptor, and the membrane permeability coefficient Pe (×10^−6 cm/sec) was calculated to assay the membrane permeability of the compound.

Compound	IC50 ([1]; 15 min, room temperature) [nM]	IC50 [1] [nM]	membrane permeability coefficient Pe compared with metoprolol [2]
Cn1cnc(C(=O)N(CCC2CCOCC2)Cc2cccc(OC(F)(F)F)c2)c1 [Compound 1]	19.5	< 100	
Cn1cnc(C(=O)N(Cc2cccc(OC(F)(F)F)c2)CC2CCOCC2)c1 [Compound 2]	34.5	< 100	higher Pe values than the high permeability marker compound metoprolol
Cn1cc(C(=O)N(Cc2cccc(OC(F)(F)F)c2)C2CCOCC2)nc1Br [Compound 6]		≥ 1000	
Cc1nc(C(=O)N(Cc2cccc(OC(F)(F)F)c2)C2CCOCC2)c[nH]1 [Compound 8]		≥ 1000	
Cc1nc(C(=O)N(Cc2cccc(OC(F)(F)F)c2)C2CCOCC2)cn1C [Compound 9]		≥ 1000	
O=C(c1cn(C2CC2)cn1)N(Cc1cccc(OC(F)(F)F)c1)C1CCOCC1 [Compound 12]		≥ 1000	higher Pe values than the high permeability marker compound metoprolol
CCn1cnc(C(=O)N(Cc2cccc(OC(F)(F)F)c2)C2CCOCC2)c1 [Compound 13]	3.1	< 100	
O=C(c1cn(CC(F)(F)F)cn1)N(Cc1cccc(OC(F)(F)F)c1)C1CCOCC1 [Compound 14]		≥ 1000	
Cn1cnc(C(=O)N(Cc2cccc(Cl)c2)C2CCOCC2)c1 [Compound 15]	13.5	< 100	higher Pe values than the high permeability marker compound metoprolol
O=C(c1nc[nH]n1)N(Cc1cccc(OC(F)(F)F)c1)C1CCOCC1 [Compound 19]		≥ 1000	
COCCn1cnc(C(=O)N(Cc2cccc(OC(F)(F)F)c2)C2CCOCC2)c1 [Compound 20]		≥ 1000	
COc1cccc(CN(C(=O)c2cn(C)cn2)C2CCOCC2)c1 [Compound 23]		< 100	
Cn1cnc(C(=O)N(Cc2ccc(F)c(C(F)(F)F)c2)C2CCOCC2)c1 [Compound 25]	4.1	< 100	
O=C(c1nc[nH]n1)N(Cc1cccc(Cl)c1)C1CCOCC1 [Compound 28]		≥ 1000	
O=C(c1nc[nH]n1)N(Cc1ccc(F)c(Cl)c1)C1CCOCC1 [Compound 29]		≥ 1000	
O=C(c1nc[nH]n1)N(Cc1ccc(F)c(C(F)(F)F)c1)C1CCOCC1 [Compound 30]		≥ 1000	
CCn1cnc(C(=O)N(Cc2cccc(OC(F)(F)F)c2)C2CCOCC2)n1 [Compound 31]	10.6	< 100	
Cn1cnc(C(=O)N(CCOc2ccc(Cl)cc2)C2CCOCC2)c1 [Compound 36]		< 100	
Cn1cnc(C(=O)N(CCOc2ccc(Cl)c(Cl)c2)C2CCOCC2)c1 [Compound 39]		< 100	
Cn1cnc(C(=O)N(Cc2cc(F)cc(C(F)(F)F)c2)C2CCOCC2)c1 [Compound 42]	26.9	< 100	
Cn1cnc(C(=O)N(Cc2ccc(-c3ccccc3)cc2)C2CCOCC2)c1 [Compound 44]		≥ 1000	
CCn1cnc(C(=O)N(Cc2ccc(F)c(C(F)(F)F)c2)C2CCOCC2)n1 [Compound 45]	32.6	< 100	
Cn1cnc(C(=O)N(CCc2ccccc2Cl)C2CCOCC2)n1 [Compound 47]		≥ 1000	
Cn1cnc(C(=O)N(Cc2ccc(OC(F)(F)F)cc2)C2CCOCC2)n1 [Compound 52]		≥ 1000	
Cn1cnc(C(=O)N(Cc2cccc(I)c2)C2CCOCC2)n1 [Compound 53]	38.2	< 100	

Compound	IC50 ([1]; 15 min, room temperature) [nM]	IC50 [1] [nM]	membrane permeability coefficient Pe compared with metoprolol [2]
Cn1cnc(C(=O)N(Cc2ccc(F)c(Br)c2)C2CCOCC2)n1 [Compound 57]	45.9	< 100	
Cn1cnc(C(=O)N(Cc2cc(OC(F)(F)F)ccc2F)C2CCOCC2)n1 [Compound 63]		≥ 1000	
Cn1cnc(C(=O)N(Cc2cccc(OC(F)F)c2)C2CCOCC2)n1 [Compound 67]	42.2	< 100	
Cn1cnc(C(=O)N(Cc2ccc(OC(F)F)c(OC(F)F)c2)C2CCOCC2)n1 [Compound 68]		≥ 1000	
Cn1cnc(C(=O)N(Cc2ccc(Cl)c(OC(F)(F)F)c2)C2CCOCC2)n1 [Compound 69]	29.8	< 100	
Cn1cnc(C(=O)N(Cc2cc(Cl)cc(OC(F)(F)F)c2)C2CCOCC2)n1 [Compound 73]	18.9	< 100	
O=C(c1ncn(C(F)F)n1)N(Cc1cccc(OC(F)(F)F)c1)C1CCOCC1 [Compound 75]		≥ 1000	
COC(=O)c1cccc(-c2cc(CN(C(=O)c3ncn(C)n3)C3CCOCC3)ccc2F)c1 [Compound 77]	10.5	< 100	
Cn1cnc(C(=O)N(Cc2ccc(F)c(-c3cccc(CO)c3)c2)C2CCOCC2)n1 [Compound 78]		< 100	
Cn1cnc(C(=O)N(Cc2ccc(F)c(-c3ccccc3F)c2)C2CCOCC2)n1 [Compound 88]	45.1	< 100	
CCCOc1cccc(-c2cc(CN(C(=O)c3ncn(C)n3)C3CCOCC3)ccc2F)c1 [Compound 93]	41.8	< 100	
Cn1cnc(C(=O)N(Cc2ccc(F)c(-c3cccc(CO)c3)c2)C2CCOCC2)c1 [Compound 94]	7.6	< 100	
Cn1cnc(C(=O)N(Cc2ccc(F)c(-c3cccc(CCC#N)c3)c2)C2CCOCC2)c1 [Compound 101]	41.1	< 100	
Cn1cnc(C(=O)N(Cc2ccc(F)c(Br)c2)C2CCOCC2)c1 [Compound 102]	3.8	< 100	
Cn1cnc(C(=O)N(Cc2ccc(F)c(-c3ccc(C(F)(F)F)cc3)c2)C2CCOCC2)c1 [Compound 104]	27.2	< 100	
Cc1ccc(-c2cc(CN(C(=O)c3cn(C)cn3)C3CCOCC3)ccc2F)cc1 [Compound 105]	16.2	< 100	
COC(=O)C(Cc1cccc(OC(F)(F)F)c1)N(C(=O)c1cn(C)cn1)C1CCOCC1 (stereo not shown) [Compound 107]	30	< 100	
Cn1cnc(C(=O)N(C2CCOCC2)C(c2ccccc2)c2ccccc2)c1 [Compound 108]		≥ 1000	
Cn1cnc(C(=O)N(Cc2ccc(F)c(Br)c2)C2CCOC(C)(C)C2)c1 (stereo not shown) [Compound 110]			higher Pe values than the high permeability marker compound metoprolol
CC1CC(N(Cc2ccc(F)c(Br)c2)C(=O)c2cn(C)cn2)CC(C)O1 (stereo not shown) [Compound 111]		≥ 1000	
Cn1cnc(C(=O)N(Cc2ccc(F)c(-c3ccc(OC(F)(F)F)cc3)c2)C2CCSCC2)c1 [Compound 112]	20.3	< 100	
Cn1cnc(C(=O)N(Cc2cccc(C(F)(F)F)c2)C2CCSCC2)c1 [Compound 113]	7.1	< 100	
Cn1cnc(C(=O)N(Cc2ccc(F)c(-c3ccc(F)cc3)c2)C2CCSCC2)c1 [Compound 114]	16.4	< 100	
Cn1cnc(C(=O)N(Cc2cccc(C(F)(F)F)c2)C2CCS(=O)(=O)CC2)c1 [Compound 117]		≥ 1000	
Cc1cc(CN(C(=O)c2cn(C)cn2)C2CCSCC2)cc(OC(F)(F)F)c1 [Compound 118]	11.3	< 100	

Source: US8623898B2, “Glycine transporter inhibiting substances” (Taisho Pharmaceutical Co., Ltd., priority 2009, dated 2014)
